From the supplement of paper PMC10307832

How the values were obtained:
Experiment in all cases: relative viability (nuclei count vs DMSO), 5 days (fraction); higher = more cells survive
[1] = compound: CCOC1=CC=CC=C1N=NC2=C(NN(C2=O)C3=NC(=CS3)C4=CC=CC=C4)C [BAM7] + CC1(C)CCC(c2ccc(Cl)cc2)=C(CN2CCN(c3ccc(C(=O)NS(=O)(=O)c4ccc(N[C@H](CCN5CCOCC5)CSc5ccccc5)c(S(=O)(=O)C(F)(F)F)c4)cc3)CC2)C1 [Navitoclax] (partner 0.5 µM)
Method in brief: (§1)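 Lung cancer cell lines in 1536-well plates got either a single drug or a fixed anchor-drug dose together with five library-drug doses (not always all listed) in √10 steps, by pin tool, on the day after seeding. Nuclei were counted after 5 days, and relative viability is the treated-to-vehicle ratio of nuclei counts. Values are medians of duplicate plates.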

[2] = compound: CCn1c(-c2nonc2N)nc2c(C#CC(C)(C)O)ncc(OC[C@H]3CCCNC3)c21 + Cc1cc(Nc2cc(N3CCN(C)CC3)nc(Sc3ccc(NC(=O)C4CC4)cc3)n2)n[nH]1 [Tozasertib] (partner 0.1 µM)
Method in brief: as §1

[3] = compound: CCn1c(-c2nonc2N)nc2c(C#CC(C)(C)O)ncc(OC[C@H]3CCCNC3)c21 + N=C(N)NC(=N)NCCc1ccccc1 [Phenformin] (partner 250 µM)
Method in brief: as §1

[4] = compound: CCn1c(-c2nonc2N)nc2c(C#CC(C)(C)O)ncc(OC[C@H]3CCCNC3)c21 + Nc1ncn([C@H]2C[C@H](O)[C@@H](CO)O2)c(=O)n1 [Decitabine] (partner 2 µM)
Method in brief: as §1

UMC-11 gave a relative viability ([1]; first compound 0.5 µM) of 0.306, a relative viability ([1]; first compound 5 µM) of 0.319 and a relative viability ([1]; first compound 15.81 µM) of 0.391. For the same cell line, the relative viability ([1]; first compound 50 µM) was 0.372, the relative viability ([2]; first compound 0.01 µM) was 0.198 and the relative viability ([2]; first compound 0.03162 µM) was 0.209. It also gave a relative viability ([2]; first compound 0.1 µM) of 0.194, a relative viability ([2]; first compound 0.3162 µM) of 0.201 and a relative viability ([2]; first compound 1 µM) of 0.197. For the same cell line, the relative viability ([3]; first compound 0.01 µM) was 0.35, the relative viability ([3]; first compound 0.03162 µM) was 0.351 and the relative viability ([3]; first compound 0.1 µM) was 0.31. For the same cell line, the relative viability ([3]; first compound 0.3162 µM) was 0.32, the relative viability ([3]; first compound 1 µM) was 0.301 and the relative viability ([4]; first compound 0.01 µM) was 0.533. For the same cell line, the relative viability ([4]; first compound 0.03162 µM) was 0.46, the relative viability ([4]; first compound 0.1 µM) was 0.6 and the relative viability ([4]; first compound 0.3162 µM) was 0.686. It also gave a relative viability ([4]; first compound 1 µM) of 0.607.
